Consider 2 compounds from article PMC9856672, “SGC-CAMKK2-1: A Chemical Probe for CAMKK2” (Cells, 2023).

Structures are written as SMILES.

The target of experiment [1] is T1, EGFR(E746-A750del) (Homo sapiens, UniProt P00533, DEL746-750).
T1 construct: purchased Eurofins DiscoverX KINOMEscan
Description: KINOMEscan 1 μM, EGFR(E746-A750del). Conditions: 1000 nM; Entrez EGFR; read-out: Percent Control. It counts as binding. The text has this: (§1) Supplement cells-12-00287-s001.zip/File S2. KinomeScan data for the CAMKK2 probe and negative control.xlsx, sheet "SGC-CAMKK2-1" | column: Percent Control

For experiment [2], the target named is T2, PAK4 (Homo sapiens, UniProt O96013).
T2 construct: purchased Eurofins DiscoverX KINOMEscan
Description: KINOMEscan 1 μM, PAK4. It counts as binding. The settings on record: 1000 nM; Entrez PAK4; read-out: Percent Control.
From the text: as §1

Experiment [3] concerns the target T3, CDK4-cyclinD3 (Homo sapiens, UniProt P11802).
T3 construct: purchased Eurofins DiscoverX KINOMEscan
Description: KINOMEscan 1 μM, CDK4-cyclinD3. The experiment is classed as binding. The settings on record: 1000 nM; Entrez CDK4; read-out: Percent Control.
From the text: as §1

Experiment [4] concerns the target T4, DCAMKL1 (Homo sapiens, UniProt O15075).
T4 construct: purchased Eurofins DiscoverX KINOMEscan
Description: KINOMEscan 1 μM, DCAMKL1. The experiment is classed as binding. The settings on record: 1000 nM; Entrez DCLK1; read-out: Percent Control.
From the text: as §1

Experiment [5] concerns the target T5, FLT3(N841I) (Homo sapiens, UniProt P36888, N841I).
T5 construct: purchased Eurofins DiscoverX KINOMEscan
Description: KINOMEscan 1 μM, FLT3(N841I). The settings on record: 1000 nM; Entrez FLT3; read-out: Percent Control. The experiment is classed as binding.
From the text: as §1

Experiment [6] concerns the target T6, CDKL3 (Homo sapiens, UniProt Q8IVW4).
T6 construct: purchased Eurofins DiscoverX KINOMEscan
Description: KINOMEscan 1 μM, CDKL3. The experiment is classed as binding. The settings on record: 1000 nM; Entrez CDKL3; read-out: Percent Control.
From the text: as §1

For experiment [7], the target named is T7, DYRK1A (Homo sapiens, UniProt Q13627).
T7 construct: purchased Eurofins DiscoverX KINOMEscan
Description: KINOMEscan 1 μM, DYRK1A. It counts as binding. The settings on record: 1000 nM; Entrez DYRK1A; read-out: Percent Control.
From the text: as §1

Experiment [8] deals with T8, FRK (Homo sapiens, UniProt P42685).
T8 construct: purchased Eurofins DiscoverX KINOMEscan
T8 sequence (P42685 whole entry): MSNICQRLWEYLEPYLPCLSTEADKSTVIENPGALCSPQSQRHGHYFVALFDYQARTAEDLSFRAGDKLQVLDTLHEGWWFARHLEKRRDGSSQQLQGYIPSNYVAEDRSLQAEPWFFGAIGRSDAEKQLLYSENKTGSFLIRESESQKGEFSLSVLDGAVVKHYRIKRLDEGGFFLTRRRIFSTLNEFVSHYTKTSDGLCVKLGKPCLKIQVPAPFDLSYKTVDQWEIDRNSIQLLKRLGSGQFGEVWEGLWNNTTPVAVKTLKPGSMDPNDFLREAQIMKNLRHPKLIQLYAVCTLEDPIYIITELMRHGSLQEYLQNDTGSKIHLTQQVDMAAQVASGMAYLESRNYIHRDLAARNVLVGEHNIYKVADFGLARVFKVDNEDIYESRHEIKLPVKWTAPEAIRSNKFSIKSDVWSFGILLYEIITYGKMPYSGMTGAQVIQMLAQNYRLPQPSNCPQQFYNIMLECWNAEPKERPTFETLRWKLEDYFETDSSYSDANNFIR
Description: KINOMEscan 1 μM, FRK. The experiment is classed as binding. Conditions: 1000 nM; Entrez FRK; read-out: Percent Control.
From the text: as §1

Experiment [9] has as its target T9, FES (Homo sapiens, UniProt P07332).
T9 construct: purchased Eurofins DiscoverX KINOMEscan
Description: KINOMEscan 1 μM, FES. It counts as binding. The settings on record: 1000 nM; Entrez FES; read-out: Percent Control.
From the text: as §1

The target in experiment [10] is T10, ULK1 (Homo sapiens, UniProt O75385).
T10 construct: purchased Eurofins DiscoverX KINOMEscan
Description: KINOMEscan 1 μM, ULK1. The settings on record: 1000 nM; Entrez ULK1; read-out: Percent Control. It counts as binding.
From the text: as §1

Experiment [11] concerns the target T11, CSNK1G1 (Homo sapiens, UniProt Q9HCP0).
T11 construct: purchased Eurofins DiscoverX KINOMEscan
Description: KINOMEscan 1 μM, CSNK1G1. The experiment is classed as binding. Conditions: 1000 nM; Entrez CSNK1G1; read-out: Percent Control.
From the text: as §1

The target of experiment [12] is T12, PIK3CA(C420R) (Homo sapiens, UniProt P42336, C420R).
T12 construct: purchased Eurofins DiscoverX KINOMEscan
Description: KINOMEscan at 1 μM, PIK3CA(C420R). It counts as binding. Conditions: 1000 nM, read-out: Percent Control. The source says: (§2) Supplement cells-12-00287-s001.zip/File S2. KinomeScan data for the CAMKK2 probe and negative control.xlsx, sheet "SGC-CAMKK2-1N" | column: Percent Control

In experiment [13] the target is T13, PIK3C2G (Homo sapiens, UniProt O75747).
T13 construct: purchased Eurofins DiscoverX KINOMEscan
Description: KINOMEscan binding assay at 1 μM, PIK3C2G. The settings on record: Compound Concentration 1000 nM; read-out: Percent Control.
From the text: as §2

Experiment [14] addresses T14, FGFR3 (Homo sapiens, UniProt P22607).
T14 construct: purchased Eurofins DiscoverX KINOMEscan
Description: KINOMEscan at 1 μM, FGFR3. Conditions: 1000 nM, read-out: Percent Control. It counts as binding.
From the text: as §2

The target of experiment [15] is T15, JAK2(JH1domain-catalytic) (Homo sapiens, UniProt O60674).
T15 construct: JAK2(JH1domain-catalytic); purchased Eurofins DiscoverX KINOMEscan
T15 sequence (O60674 840-1132 limits assumed): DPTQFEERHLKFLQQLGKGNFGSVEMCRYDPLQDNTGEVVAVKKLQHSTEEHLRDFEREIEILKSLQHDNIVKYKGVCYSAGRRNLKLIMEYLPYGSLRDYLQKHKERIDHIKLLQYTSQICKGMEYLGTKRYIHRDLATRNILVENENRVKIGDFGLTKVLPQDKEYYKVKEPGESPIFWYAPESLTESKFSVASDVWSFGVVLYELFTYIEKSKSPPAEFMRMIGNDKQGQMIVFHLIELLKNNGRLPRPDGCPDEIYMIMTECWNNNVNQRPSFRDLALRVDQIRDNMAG
Description: KINOMEscan at 1 μM, JAK2(JH1domain-catalytic). It counts as binding. The settings on record: 1000 nM, read-out: Percent Control.
From the text: as §2

The target in experiment [16] is T16, KIT(V559D) (Homo sapiens, UniProt P10721, V559D).
T16 construct: purchased Eurofins DiscoverX KINOMEscan
Description: KINOMEscan at 1 μM, KIT(V559D). Conditions: 1000 nM, read-out: Percent Control. It counts as binding.
From the text: as §2

Experiment [17] concerns the target T17, PIK4CB (Homo sapiens, UniProt Q9UBF8).
T17 construct: purchased Eurofins DiscoverX KINOMEscan
Description: KINOMEscan at 1 μM, PIK4CB. The experiment is classed as binding. The settings on record: 1000 nM, read-out: Percent Control.
From the text: as §2

For experiment [18], the target named is T18, SNARK (Homo sapiens, UniProt Q9H093).
T18 construct: purchased Eurofins DiscoverX KINOMEscan
T18 sequence (Q9H093 whole entry): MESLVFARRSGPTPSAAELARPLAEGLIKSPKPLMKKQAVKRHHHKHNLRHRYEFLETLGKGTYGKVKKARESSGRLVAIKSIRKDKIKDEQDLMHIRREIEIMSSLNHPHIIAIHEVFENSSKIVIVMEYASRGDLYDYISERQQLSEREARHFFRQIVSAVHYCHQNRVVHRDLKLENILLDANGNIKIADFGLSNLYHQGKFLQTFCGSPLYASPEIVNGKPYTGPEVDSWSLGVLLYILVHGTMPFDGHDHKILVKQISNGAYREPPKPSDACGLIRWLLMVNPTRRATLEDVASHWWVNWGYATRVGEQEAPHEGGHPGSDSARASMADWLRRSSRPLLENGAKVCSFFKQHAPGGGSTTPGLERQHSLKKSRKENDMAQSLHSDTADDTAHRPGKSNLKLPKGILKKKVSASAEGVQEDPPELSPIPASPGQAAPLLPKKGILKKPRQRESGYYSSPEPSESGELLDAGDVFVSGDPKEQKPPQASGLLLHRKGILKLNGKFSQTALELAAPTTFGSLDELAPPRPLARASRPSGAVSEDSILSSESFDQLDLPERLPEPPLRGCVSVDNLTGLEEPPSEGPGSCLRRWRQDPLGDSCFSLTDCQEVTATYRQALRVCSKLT
Description: KINOMEscan at 1 μM, SNARK. The experiment is classed as binding. Conditions: 1000 nM, read-out: Percent Control.
From the text: as §2

Experiment [19] addresses T19, AURKB (Homo sapiens, UniProt Q96GD4).
T19 construct: purchased Eurofins DiscoverX KINOMEscan
Description: KINOMEscan at 1 μM, AURKB. It counts as binding. Conditions: 1000 nM, read-out: Percent Control.
From the text: as §2

The target in experiment [20] is T20, PDGFRA (Homo sapiens, UniProt P16234).
T20 construct: purchased Eurofins DiscoverX KINOMEscan
T20 sequence (P16234 24-1089): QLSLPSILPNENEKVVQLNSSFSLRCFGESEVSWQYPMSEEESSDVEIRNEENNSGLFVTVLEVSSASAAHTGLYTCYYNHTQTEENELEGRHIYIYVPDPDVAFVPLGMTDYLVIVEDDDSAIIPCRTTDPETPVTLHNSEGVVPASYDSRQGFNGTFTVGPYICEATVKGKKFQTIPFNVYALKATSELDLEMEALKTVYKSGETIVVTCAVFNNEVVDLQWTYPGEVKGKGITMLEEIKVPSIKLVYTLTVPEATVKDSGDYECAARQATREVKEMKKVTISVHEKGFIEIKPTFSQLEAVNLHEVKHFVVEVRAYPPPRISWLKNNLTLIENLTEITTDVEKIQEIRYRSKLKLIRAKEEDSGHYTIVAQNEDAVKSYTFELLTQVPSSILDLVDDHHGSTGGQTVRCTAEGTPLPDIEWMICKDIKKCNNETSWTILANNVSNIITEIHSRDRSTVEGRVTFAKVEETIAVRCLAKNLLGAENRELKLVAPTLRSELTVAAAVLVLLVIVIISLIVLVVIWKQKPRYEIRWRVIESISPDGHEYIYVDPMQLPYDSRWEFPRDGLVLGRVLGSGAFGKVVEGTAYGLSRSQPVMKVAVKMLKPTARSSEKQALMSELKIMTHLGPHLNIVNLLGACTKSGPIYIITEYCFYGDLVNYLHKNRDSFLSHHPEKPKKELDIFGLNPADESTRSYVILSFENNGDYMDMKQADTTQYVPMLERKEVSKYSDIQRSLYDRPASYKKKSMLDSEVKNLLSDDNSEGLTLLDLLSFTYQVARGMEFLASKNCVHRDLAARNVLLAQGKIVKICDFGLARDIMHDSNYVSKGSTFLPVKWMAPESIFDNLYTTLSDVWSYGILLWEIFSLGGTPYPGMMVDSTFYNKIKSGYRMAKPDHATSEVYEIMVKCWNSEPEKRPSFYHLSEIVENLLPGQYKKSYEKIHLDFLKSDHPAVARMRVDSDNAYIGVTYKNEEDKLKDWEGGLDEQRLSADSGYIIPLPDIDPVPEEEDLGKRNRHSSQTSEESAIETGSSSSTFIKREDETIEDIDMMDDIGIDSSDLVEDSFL
Description: KINOMEscan at 1 μM, PDGFRA. Conditions: 1000 nM, read-out: Percent Control. It counts as binding.
From the text: as §2

In experiment [21] the target is T21, CSNK2A2 (Homo sapiens, UniProt P19784).
T21 construct: purchased Eurofins DiscoverX KINOMEscan
T21 sequence (P19784 whole entry): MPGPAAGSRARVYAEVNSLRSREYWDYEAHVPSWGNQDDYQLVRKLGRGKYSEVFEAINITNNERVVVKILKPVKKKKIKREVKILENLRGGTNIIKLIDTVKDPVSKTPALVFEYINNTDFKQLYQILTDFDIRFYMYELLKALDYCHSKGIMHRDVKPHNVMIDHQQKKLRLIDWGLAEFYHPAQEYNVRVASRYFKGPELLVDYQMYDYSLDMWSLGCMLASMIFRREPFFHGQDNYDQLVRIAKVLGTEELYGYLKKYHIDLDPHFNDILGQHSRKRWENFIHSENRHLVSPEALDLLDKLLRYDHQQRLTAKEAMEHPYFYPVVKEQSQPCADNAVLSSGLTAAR
Description: KINOMEscan at 1 μM, CSNK2A2. The settings on record: 1000 nM, read-out: Percent Control. The experiment is classed as binding.
From the text: as §2

For experiment [22], the target named is T22, ROCK2 (Homo sapiens, UniProt O75116).
T22 construct: purchased Eurofins DiscoverX KINOMEscan
T22 sequence (O75116 whole entry): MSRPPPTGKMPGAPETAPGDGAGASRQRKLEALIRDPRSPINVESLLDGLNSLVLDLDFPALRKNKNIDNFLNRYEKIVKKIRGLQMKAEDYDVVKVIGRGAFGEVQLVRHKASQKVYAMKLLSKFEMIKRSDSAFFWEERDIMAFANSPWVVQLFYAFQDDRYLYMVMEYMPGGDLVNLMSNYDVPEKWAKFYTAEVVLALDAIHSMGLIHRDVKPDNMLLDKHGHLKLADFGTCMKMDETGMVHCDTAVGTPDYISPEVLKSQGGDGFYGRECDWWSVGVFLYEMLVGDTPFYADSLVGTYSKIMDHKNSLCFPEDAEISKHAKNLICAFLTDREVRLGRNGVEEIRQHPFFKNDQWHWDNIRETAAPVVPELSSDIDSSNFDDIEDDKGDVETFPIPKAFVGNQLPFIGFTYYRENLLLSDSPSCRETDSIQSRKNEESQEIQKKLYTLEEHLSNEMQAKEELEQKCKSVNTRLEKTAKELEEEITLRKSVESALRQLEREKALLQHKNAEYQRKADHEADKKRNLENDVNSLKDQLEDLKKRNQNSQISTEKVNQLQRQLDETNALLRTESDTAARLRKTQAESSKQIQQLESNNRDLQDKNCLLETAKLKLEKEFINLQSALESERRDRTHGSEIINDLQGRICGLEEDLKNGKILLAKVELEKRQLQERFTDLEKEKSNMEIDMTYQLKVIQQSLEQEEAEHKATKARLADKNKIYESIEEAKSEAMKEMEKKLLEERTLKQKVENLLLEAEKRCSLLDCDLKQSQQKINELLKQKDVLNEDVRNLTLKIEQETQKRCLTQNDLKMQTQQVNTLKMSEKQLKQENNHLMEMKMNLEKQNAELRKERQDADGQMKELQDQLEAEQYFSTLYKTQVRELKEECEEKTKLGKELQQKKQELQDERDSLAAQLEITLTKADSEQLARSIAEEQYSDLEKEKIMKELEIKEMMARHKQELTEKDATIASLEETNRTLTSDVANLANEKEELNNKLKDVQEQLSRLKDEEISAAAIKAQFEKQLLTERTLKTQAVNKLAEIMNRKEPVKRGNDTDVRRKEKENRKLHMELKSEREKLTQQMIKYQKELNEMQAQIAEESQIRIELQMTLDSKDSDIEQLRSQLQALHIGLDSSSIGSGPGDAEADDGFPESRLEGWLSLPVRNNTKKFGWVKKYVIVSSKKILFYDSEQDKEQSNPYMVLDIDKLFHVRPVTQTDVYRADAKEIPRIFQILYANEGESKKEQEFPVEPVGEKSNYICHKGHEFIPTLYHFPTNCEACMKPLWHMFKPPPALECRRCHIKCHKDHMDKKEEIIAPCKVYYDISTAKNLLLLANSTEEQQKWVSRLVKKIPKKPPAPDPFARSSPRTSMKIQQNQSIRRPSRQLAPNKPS
Description: KINOMEscan at 1 μM, ROCK2. The settings on record: 1000 nM, read-out: Percent Control. The experiment is classed as binding.
From the text: as §2

Experiment [23] deals with T23, LATS2 (Homo sapiens, UniProt Q9NRM7).
T23 construct: purchased Eurofins DiscoverX KINOMEscan
Description: KINOMEscan at 1 μM, LATS2. It counts as binding. Conditions: 1000 nM, read-out: Percent Control.
From the text: as §2

The target in experiment [24] is T24, CDK2 (Homo sapiens, UniProt P24941).
T24 construct: purchased Eurofins DiscoverX KINOMEscan
Description: KINOMEscan at 1 μM, CDK2. The experiment is classed as binding. The settings on record: 1000 nM, read-out: Percent Control.
From the text: as §2

Experiment [25] deals with T25, MEK1 (Homo sapiens, UniProt Q02750).
T25 construct: purchased Eurofins DiscoverX KINOMEscan
Description: KINOMEscan at 1 μM, MEK1. Conditions: 1000 nM, read-out: Percent Control. The experiment is classed as binding.
From the text: as §2

The target of experiment [26] is T26, KIT(D816V) (Homo sapiens, UniProt P10721, D816V).
T26 construct: purchased Eurofins DiscoverX KINOMEscan
Description: KINOMEscan at 1 μM, KIT(D816V). The settings on record: 1000 nM, read-out: Percent Control. It counts as binding.
From the text: as §2

Experiment [27] has as its target T27, EGFR(T790M) (Homo sapiens, UniProt P00533, T790M).
T27 construct: purchased Eurofins DiscoverX KINOMEscan
Description: KINOMEscan at 1 μM, EGFR(T790M). Conditions: 1000 nM, read-out: Percent Control. The experiment is classed as binding.
From the text: as §2

Experiment [28] has as its target T28, KIT(V559D,T670I) (Homo sapiens, UniProt P10721, T670I/V559D).
T28 construct: purchased Eurofins DiscoverX KINOMEscan
Description: KINOMEscan binding assay at 1 μM, KIT(V559D,T670I). Conditions: Compound Concentration 1000 nM; read-out: Percent Control.
From the text: as §2

The target of experiment [29] is T29, MET(Y1235D) (Homo sapiens, UniProt P08581, Y1235D).
T29 construct: purchased Eurofins DiscoverX KINOMEscan
Description: KINOMEscan at 1 μM, MET(Y1235D). Conditions: 1000 nM, read-out: Percent Control. It counts as binding.
From the text: as §2

Experiment [30] deals with T30, NLK (Homo sapiens, UniProt Q9UBE8).
T30 construct: purchased Eurofins DiscoverX KINOMEscan
Description: KINOMEscan at 1 μM, NLK. It counts as binding. Conditions: 1000 nM, read-out: Percent Control.
From the text: as §2

Experiment [31] deals with T31, ALK(C1156Y) (Homo sapiens, UniProt Q9UM73, C1156Y).
T31 construct: purchased Eurofins DiscoverX KINOMEscan
Description: KINOMEscan at 1 μM, ALK(C1156Y). It counts as binding. Conditions: 1000 nM, read-out: Percent Control.
From the text: as §2

Experiment [32] deals with T32, RSK2(Kin.Dom.2-C-terminal) (Homo sapiens, UniProt P51812).
T32 construct: RSK2(Kin.Dom.2-C-terminal); purchased Eurofins DiscoverX KINOMEscan
Description: KINOMEscan at 1 μM, RSK2(Kin.Dom.2-C-terminal). It counts as binding. Conditions: 1000 nM, read-out: Percent Control.
From the text: as §2

Experiment [33] addresses T33, ZAP70 (Homo sapiens, UniProt P43403).
T33 construct: purchased Eurofins DiscoverX KINOMEscan
Description: KINOMEscan at 1 μM, ZAP70. It counts as binding. The settings on record: 1000 nM, read-out: Percent Control.
From the text: as §2

T4 sequence (O15075 whole entry): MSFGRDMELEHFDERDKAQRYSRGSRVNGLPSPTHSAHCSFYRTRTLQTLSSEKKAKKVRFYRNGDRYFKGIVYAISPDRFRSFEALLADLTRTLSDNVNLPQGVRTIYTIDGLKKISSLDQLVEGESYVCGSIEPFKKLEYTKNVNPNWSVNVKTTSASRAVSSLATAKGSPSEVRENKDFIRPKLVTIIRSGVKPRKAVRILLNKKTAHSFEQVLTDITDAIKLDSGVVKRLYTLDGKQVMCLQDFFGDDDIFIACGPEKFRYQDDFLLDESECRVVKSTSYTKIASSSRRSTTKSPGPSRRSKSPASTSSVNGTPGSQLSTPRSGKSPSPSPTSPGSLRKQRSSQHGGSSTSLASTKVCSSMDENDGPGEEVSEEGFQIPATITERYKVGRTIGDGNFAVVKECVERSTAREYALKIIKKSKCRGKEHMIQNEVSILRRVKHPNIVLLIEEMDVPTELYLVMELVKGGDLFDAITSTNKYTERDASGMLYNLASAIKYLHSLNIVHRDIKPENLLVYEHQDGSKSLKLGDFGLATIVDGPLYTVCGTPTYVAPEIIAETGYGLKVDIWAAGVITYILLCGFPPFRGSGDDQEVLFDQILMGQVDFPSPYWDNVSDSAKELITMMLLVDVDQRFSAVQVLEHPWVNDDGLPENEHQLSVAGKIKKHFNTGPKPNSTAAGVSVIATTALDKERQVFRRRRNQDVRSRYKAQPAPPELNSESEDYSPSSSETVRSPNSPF

In the case of `Cc1cccc(-c2cnc3occ(-c4ccc(C(=O)O)c(C5CCCC5)c4)c3c2)c1` [SGC-CAMKK2-1 (YL-36)], the remaining binding at 1 µM stood at 100% in experiment [1]; 69% in experiment [2]; 100% in experiment [3]; 100% in experiment [4]; 95% in experiment [5]; 96% in [6]. Further, the remaining binding at 1 µM in experiment [7] came to 100%; in experiment [8], 100%; in experiment [9], 88%; in experiment [10], 62%; in experiment [11], 100%.
With `O=C(O)c1ccc(-c2coc3ncc(-c4ccccc4)cc23)cc1Cl` [SGC-CAMKK2-1N (UNC-YL-83)], the remaining binding at 1 µM in experiment [12] stood at 0%; in [13], 100%; in experiment [14], 76%; in experiment [15], 80%; in experiment [16] it was 70%; in [17], 54%. In addition, the remaining binding at 1 µM in [18] stood at 90%; in [19], 62%; in [20], 74%; in experiment [21], 98%; in experiment [22] it was 70%; in experiment [23], 87%. Also, the remaining binding at 1 µM is 91% in experiment [24]; 93% in [25]; 32% in [26]; 85% in [27]; 100% in experiment [28]; 91% in experiment [29]. Moreover, the remaining binding at 1 µM in experiment [30] turned out to be 84%; in experiment [31], 0%; in experiment [32], 70%; in experiment [33], 85%.
